According to patent US20210238197A1, “NOVEL OXOQUINOLIZINE COMPOUNDS FOR THE TREATMENT AND PROPHYLAXIS OF BACTERIAL INFECTION” (Hoffmann-La Roche Inc., priority 2018, published 2021):
Values after ≈ are worked out from the molar mass of the structure shown. Read-outs that look alike come from different tables or passages of the source.

Columns and labels:
S. aureus (ATCC29213) = assay: 50% growth inhibitory concentration (IC50) determination assay, S. aureus; format: cell-based; details: Staphylococcus aureus, ATCC29213; Iso-Sensitest broth, growth by OD 600 nm over 16 h; <0.098 = detection limit
How it was run: (§1)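 Compounds two-fold diluted from 50 to 0.097 μM (final) in Iso-Sensitest broth, inoculum ~5×10^5 CFU/mL. Incubation at 35±2 °C with OD600 read every 20 min over 16 h to track growth.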

[1] = test system: K. pneumoniae (ATCC10031); assay: 50% growth inhibitory concentration (IC50) determination assay, K. pneumoniae; format: cell-based; details: Klebsiella pneumoniae, ATCC10031; Iso-Sensitest broth, growth by OD 600 nm over 16 h; <0.098 = detection limit
How it was run: as §1

A. baumannii (ATCC17978) = assay: 50% growth inhibitory concentration (IC50) determination assay, A. baumannii; format: cell-based; details: Acinetobacter baumannii, ATCC17978; Iso-Sensitest broth, growth by OD 600 nm over 16 h; <0.098 = detection limit
How it was run: as §1

[2] = Lyophilisation solubility assay (LYSA); format: physicochemical; details: aqueous buffer, thermodynamic from solid; 0.05 M phosphate buffer, pH 6.5; <1.0 = detection limit
Experimental: The solubility of compounds of present invention was assessed by LYSA assay. Samples were prepared in duplicate from 10 mM DMSO stock solutions (20 μL) diluted in 30 μL pure DMSO. After evaporation of DMSO with a centrifugal vacuum evaporator, the residue was dissolved in 0.05 M phosphate buffer (150 μL, pH 6.5), which was stirred for one hour and shook for two hours. After one night, the solution was filtered using a microtiter filter plate. Then the filtrate and its 1/10 dilution were analyzed by HPLC-UV. In addition a four-point calibration curve was prepared from the 10 mM stock solutions and used for the solubility determination of the compounds.

[3] = test system: multiple species and strains; assay: microbe, parasite or virus in culture; set-up: MIC S9 / MIC S7 / MIC S11 / MIC S8 / MIC S10: unit not given beside the values; details: for MIC S9: E. coli ATCC 35218
How it was run: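 Broth microdilution per CLSI M07-A10 in CAMHB, CAMHB+3% lysed horse blood or HTM. Inoculum was set to OD600 ~0.1, then diluted 1:280 (Gram-positive) or 1:400 (Gram-negative), and plates were incubated 18-24 h at 35±2° C in ambient air. MIC (μg/mL) is the lowest concentration giving no visible growth.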

[4] = Cytotoxicity assay (HepG2, CellTiter-Blue); format: cell-based; details: human; HepG2 cells, 3 days treatment; >100 = detection limit
Experimental: The cytotoxicity of compounds of present invention was assessed by HepG2 assay. HepG2 cells (ATCC RB-8065™) were seeded into 96-well plates (1.2×10^4 cells per well) and treated with compounds for 3 days, cell viability was measured at day 3 post compound treatment using the CellTiter-Blue® Cell Viability Assay (Promega, Cat. No. G8082). […], of Cell titer blue buffer were added to each well of the cells, which were incubated for 3 hours at 37° C., and the fluorescence value was measured by a plate reader (Molecular Device SpectraMax M2). The CC50 value of each compound is plotted with GraphPad Prism using four parameter logistic equation.

[5] = Acinetobacter baumannii, ATCC19606, read-out: MIC S1, A. baumannii ATCC 19606
[6] = Acinetobacter baumannii, ATCC51432, read-out: MIC S2, A. baumannii ATCC 51432
[7] = Acinetobacter baumannii, ATCCBAA747, read-out: MIC S3, A. baumannii ATCC BAA-747
[8] = Escherichia coli, ATCC25922, read-out: MIC S11, E. coli ATCC 25922
[9] = Escherichia coli, ATCCBAA2340, read-out: MIC S10, E. coli ATCC BAA-2340
[10] = Klebsiella pneumoniae, ATCC10031, read-out: MIC S4, K. pneumoniae ATCC 10031
[11] = Klebsiella pneumoniae, ATCC700603, read-out: MIC S5, K. pneumoniae ATCC 700603
[12] = Klebsiella pneumoniae, ATCCBAA2146, read-out: MIC S6, K. pneumoniae ATCC BAA-2146
[13] = Pseudomonas aeruginosa, ATCC27853, read-out: MIC S7, P. aeruginosa ATCC 27853
[14] = Pseudomonas aeruginosa, ATCCBAA2113, read-out: MIC S8, P. aeruginosa ATCC BAA-2113

| SMILES | IC50 (S. aureus (ATCC29213)) [nM] | IC50 [1] [nM] | IC50 (A. baumannii (ATCC17978)) [nM] | solubility thermodynamic [2] [µg/mL] | MIC [3, 5] [µg/mL] | MIC [3, 6] [µg/mL] | MIC [3, 7] [µg/mL] | MIC S9 [3] | MIC [3, 8] [µg/mL] | MIC [3, 9] [µg/mL] | MIC [3, 10] [µg/mL] | MIC [3, 11] [µg/mL] | MIC [3, 12] [µg/mL] | MIC [3, 13] [µg/mL] | MIC [3, 14] [µg/mL] | CC50 at 3 days [4] [nM] |
| --- | --- | --- | --- | --- | --- | --- | --- | --- | --- | --- | --- | --- | --- | --- | --- | --- |
| CNc1cc(Cl)cc2c1[nH]c1ncc(-c3ccc4ccc(C(=O)O)c(=O)n4c3)c(N3CC[C@H]4CN(C)C[C@H]43)c12 (relative stereo) [Example 1.19, 7-[6-chloro-4-(cis-5-methyl-2,3,3a,4,6,6a-hexahydropyrrolo[2,3-c]pyrrol-1-yl)-8-(methylamino)-9H-pyrido[2,3-b]indol-3-yl]-4-oxo-quinolizine-3-carboxylic acid] | 185 | < 98 | < 98 | 29 (≈ 53.4 µM) | – | – | – | – | – | – | – | – | – | – | – | – |
| CNc1cc(F)c(F)c2c1[nH]c1ncc(-c3ccc4c(C(F)(F)F)cc(C(=O)O)c(=O)n4c3)c(N3CC[C@H]4CN(C)C[C@H]43)c12 (relative stereo) [Example 2.06, 7-[4-[cis-5-methyl-2,3,3a,4,6,6a-hexahydropyrrolo[2,3-c]pyrrol-1-yl]-5,6-difluoro-8-(methylamino)-9H-pyrido[2,3-b]indol-3-yl]-4-oxo-1-(trifluoromethyl)quinolizine-3-carboxylic acid] | – | – | – | 7 (≈ 11.4 µM) | – | – | – | – | – | – | – | – | – | – | – | – |
| CNc1cc(F)c(F)c2c1[nH]c1ncc(-c3cc(F)c4ccc(C(=O)O)c(=O)n4c3)c(N3CC[C@H]4CN(C)C[C@H]43)c12 (relative stereo) [Example 2.02, 7-[4-[cis-5-methyl-2,3,3a,4,6,6a-hexahydropyrrolo[2,3-c]pyrrol-1-yl]-5,6-difluoro-8-(methylamino)-9H-pyrido[2,3-b]indol-3-yl]-9-fluoro-4-oxo-quinolizine-3-carboxylic acid] | 108 | < 98 | < 98 | 58 (≈ 103 µM) | – | – | – | – | – | – | – | – | – | – | – | – |
| CNc1cc(F)cc2c1[nH]c1ncc(-c3ccc4ccc(C(=O)O)c(=O)n4c3)c(N3C[C@H]4CCN(C)[C@H]4C3)c12 (single isomer, unassigned) [Example 3.01A] | < 98 | < 98 | < 98 | 9 (≈ 17.1 µM) | – | – | – | – | – | – | – | – | – | – | – | – |
| CNc1cc(F)cc2c1[nH]c1ncc(-c3ccc4ccc(C(=O)O)c(=O)n4c3)c(N3CCC4(C)CN(C)CC34)c12 (stereo not drawn) [Example 1.10, 7-[4-(3a,5-dimethyl-3,4,6,6a-tetrahydro-2H-pyrrolo[2,3-c]pyrrol-1-yl)-6-fluoro-8-(methylamino)-9H-pyrido[2,3-b]indol-3-yl]-4-oxo-quinolizine-3-carboxylic acid] | < 98 | < 98 | < 98 | 90 (≈ 166 µM) | – | – | – | – | – | – | – | – | – | – | – | – |
| CNc1cc(F)cc2c1[nH]c1ncc(-c3ccc4ccc(C(=O)O)c(=O)n4c3)c(N3CC[C@@H]4CN(C)C[C@@H]43)c12 (single isomer, unassigned) [Example 3.02B] | 1280 | < 98 | 483 | > 683 | – | – | – | – | – | – | – | – | – | – | – | – |
| CNc1cc(F)c(F)c2c1[nH]c1ncc(-c3cc(C)c4ccc(C(=O)O)c(=O)n4c3)c(N3CC[C@H]4CN(C)C[C@H]43)c12 (relative stereo) [Example 2.01, 7-(5,6-Difluoro-8-(methylamino)-4-(cis-5-methyl-2,3,3a,4,6,6a-hexahydropyrrolo[2,3-c]pyrrol-1-yl)-9H-pyrido[2,3-b]indol-3-yl)-9-methyl-4-oxo-4H-quinolizine-3-carboxylic acid] | < 98 | < 98 | < 98 | 41 (≈ 73.4 µM) | – | – | – | – | – | – | – | – | – | – | – | – |
| CNc1cc(F)c(C#N)c2c1[nH]c1ncc(-c3ccc4ccc(C(=O)O)c(=O)n4c3)c(N3CC[C@H]4CCN(C)C4C3)c12 (stereo in doubt) [Example 1.17, 7-[4-[cis-1-methyl-3,3a,4,5,7,7a-hexahydro-2H-pyrrolo[2,3-c]pyridin-6-yl]-5-cyano-6-fluoro-8-(methylamino)-9H-pyrido[2,3-b]indol-3-yl]-4-oxo-quinolizine-3-carboxylic acid] | 139 | < 98 | < 98 | 12 (≈ 21.2 µM) | 0.882 (≈ 1.56 µM) | 0.882 (≈ 1.56 µM) | 0.882 (≈ 1.56 µM) | 0.882 | 0.166 (≈ 0.293 µM) | 0.882 (≈ 1.56 µM) | 0.028 (≈ 0.0495 µM) | 3.54 (≈ 6.25 µM) | 3.54 (≈ 6.25 µM) | 0.882 (≈ 1.56 µM) | 3.54 (≈ 6.25 µM) | – |
| CNc1cc(F)c(F)c2c1[nH]c1ncc(-c3ccc4c(CN5CCCC5)cc(C(=O)O)c(=O)n4c3)c(N3CC[C@H]4CN(C)C[C@H]43)c12 (relative stereo) [Example 2.10, 7-[4-[cis-5-methyl-2,3,3a,4,6,6a-hexahydropyrrolo[2,3-c]pyrrol-1-yl]-5,6-difluoro-8-(methylamino)-9H-pyrido[2,3-b]indol-3-yl]-4-oxo-1-(pyrrolidin-1-ylmethyl)quinolizine-3-carboxylic acid] | – | – | – | > 940 | – | – | – | – | – | – | – | – | – | – | – | 89200 |
| CNc1cc(F)cc2c1[nH]c1ncc(-c3ccc4ccc(C(=O)O)c(=O)n4c3)c(N3CCO[C@H](CN(C)C)C3)c12 [Example 2.07, (R)-7-(4-(2-((dimethylamino)methyl)morpholino)-6-fluoro-8-(methylamino)-9H-pyrido[2,3-b]indol-3-yl)-4-oxo-4H-quinolizine-3-carboxylic acid] | 379 | < 98 | 242 | 48 (≈ 88.1 µM) | – | – | – | – | – | – | – | – | – | – | – | – |
| CNc1cc(F)c(F)c2c1[nH]c1ncc(-c3ccc4ccc(C(=O)O)c(=O)n4c3)c(N3CC[C@@H]4CCN(C)[C@@H]4C3)c12 [Example 3.04B, 7-[4-[(3aS,7aS)-1-methyl-3,3a,4,5,7,7a-hexahydro-2H-pyrrolo[2,3-c]pyridin-6-yl]-5,6-difluoro-8-(methylamino)-9H-pyrido[2,3-b]indol-3-yl]-4-oxo-quinolizine-3-carboxylic acid] | < 98 | < 98 | < 98 | – | 0.436 (≈ 0.781 µM) | 0.436 (≈ 0.781 µM) | 0.436 (≈ 0.781 µM) | 0.436 | 0.164 (≈ 0.294 µM) | 1.75 (≈ 3.13 µM) | 0.027 (≈ 0.0483 µM) | 1.75 (≈ 3.13 µM) | 1.75 (≈ 3.13 µM) | 0.873 (≈ 1.56 µM) | 1.75 (≈ 3.13 µM) | 10800 |
| CNc1cc(F)cc2c1[nH]c1ncc(-c3ccc4ccc(C(=O)O)c(=O)n4c3)c(N3CCO[C@@H](CN(C)C)C3)c12 [Example 2.08, (S)-7-(4-(2-((dimethylamino)methyl)morpholino)-6-fluoro-8-(methylamino)-9H-pyrido[2,3-b]indol-3-yl)-4-oxo-4H-quinolizine-3-carboxylic acid] | 433 | < 98 | 132 | 54 (≈ 99.2 µM) | – | – | – | – | – | – | – | – | – | – | – | – |
| CNc1cc(F)c(F)c2c1[nH]c1ncc(-c3ccc4ccc(C(=O)O)c(=O)n4c3)c(N3CC[C@]4(C[C@@H]4N)C3)c12 [Example 4.01D, 7-(4-((1S,3S)-1-amino-5-azaspiro[2.4]heptan-5-yl)-5,6-difluoro-8-(methylamino)-9H-pyrido[2,3-b]indol-3-yl)-4-oxo-4H-quinolizine-3-carboxylic acid] | < 98 | < 98 | < 98 | – | 0.592 (≈ 1.12 µM) | 1.19 (≈ 2.24 µM) | 1.19 (≈ 2.24 µM) | 1.186 | 0.111 (≈ 0.209 µM) | 0.592 (≈ 1.12 µM) | 0.037 (≈ 0.0697 µM) | 4.74 (≈ 8.94 µM) | 4.74 (≈ 8.94 µM) | 1.19 (≈ 2.24 µM) | 2.37 (≈ 4.47 µM) | > 100000 |
| CNc1cc(F)cc2c1[nH]c1ncc(-c3ccc4ccc(C(=O)O)c(=O)n4c3)c(N3C[C@@H]4CCN(C)[C@@H]4C3)c12 (single isomer, unassigned) [Example 3.01B] | < 98 | < 98 | < 98 | 16 (≈ 30.4 µM) | – | – | – | – | – | – | – | – | – | – | – | – |
